Measurements: ChEMBL document CHEMBL4387747, “Discovery of naphthacemycins as a novel class of PARP1 inhibitors” (Bioorg Med Chem Lett, 2019)
Calls of active or inactive are those of the source. No cut-off for these calls is given here.

Assays:
MCF7 = assay: cells; conditions: Homo sapiens
MDA-MB-231 = assay: cells; conditions: Homo sapiens
[1] = target: T1, Poly [ADP-ribose] polymerase 1 (Homo sapiens, UniProt P09874); assay: Inhibition of recombinant human full length C-terminal His-tagged PARP1 expressed in Sf9 insect cells preincubated for 15 mins followed by NAD+ addition and measured after 40 mins by fluorescence based assay
T1 sequence (P09874 whole entry): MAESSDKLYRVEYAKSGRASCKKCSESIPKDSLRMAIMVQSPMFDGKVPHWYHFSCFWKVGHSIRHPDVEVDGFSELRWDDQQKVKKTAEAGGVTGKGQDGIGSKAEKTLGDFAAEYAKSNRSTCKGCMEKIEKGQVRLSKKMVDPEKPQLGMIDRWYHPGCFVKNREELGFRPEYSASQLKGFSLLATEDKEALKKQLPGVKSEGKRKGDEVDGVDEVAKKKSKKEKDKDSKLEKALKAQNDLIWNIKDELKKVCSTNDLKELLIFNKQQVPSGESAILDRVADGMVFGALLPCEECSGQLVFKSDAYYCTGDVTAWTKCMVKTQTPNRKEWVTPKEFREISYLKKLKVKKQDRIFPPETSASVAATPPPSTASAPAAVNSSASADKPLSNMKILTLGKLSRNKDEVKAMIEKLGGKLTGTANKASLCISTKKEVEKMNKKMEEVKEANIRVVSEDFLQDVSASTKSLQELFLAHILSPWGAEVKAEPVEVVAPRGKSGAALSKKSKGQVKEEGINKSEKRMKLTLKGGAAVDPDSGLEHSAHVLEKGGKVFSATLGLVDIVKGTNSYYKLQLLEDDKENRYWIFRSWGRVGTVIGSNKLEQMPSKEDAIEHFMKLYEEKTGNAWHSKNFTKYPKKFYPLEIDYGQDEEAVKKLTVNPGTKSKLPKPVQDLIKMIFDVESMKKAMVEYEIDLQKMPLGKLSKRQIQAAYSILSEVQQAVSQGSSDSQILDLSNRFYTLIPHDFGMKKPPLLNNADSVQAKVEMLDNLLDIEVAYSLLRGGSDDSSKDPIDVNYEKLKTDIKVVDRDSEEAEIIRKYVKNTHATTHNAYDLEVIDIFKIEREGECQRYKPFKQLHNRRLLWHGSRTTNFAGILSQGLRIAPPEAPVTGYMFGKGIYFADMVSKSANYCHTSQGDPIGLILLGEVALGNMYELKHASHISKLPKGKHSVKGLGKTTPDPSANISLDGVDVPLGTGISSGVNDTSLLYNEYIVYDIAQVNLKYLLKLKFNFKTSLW

MDA-MB-436 [2] = system: MDA-MB-436
[3] = target: T1, Poly [ADP-ribose] polymerase 1; assay: Inhibition of PARP1 in human MDA-MB-436 cells harboring BRCA1 mutation assessed as increase in gammaH2AX expression level incubated for 24 hrs by Western blot analysis; type: cell-based
[4] = target: T1, Poly [ADP-ribose] polymerase 1; assay: Inhibition of PARP1 in human MDA-MB-436 cells harboring BRCA1 mutation assessed as decrease in PAR expression level incubated for 3 hrs by Western blot analysis; type: cell-based
MDA-MB-436 [5] = assay: Effect on whole cell PARP1 protein levels in MMS treated human MDA-MB-436 cells harboring BRCA1 mutation at 5 to 45 uM incubated for 4 hrs by Western blot analysis; type: functional, cell-based
[6] = target: T1, Poly [ADP-ribose] polymerase 1; assay: Inhibition of PARP1 in human MDA-MB-231 cells assessed as decrease in PAR expression level incubated for 3 hrs by Western blot analysis; type: cell-based
[7] = target: T1, Poly [ADP-ribose] polymerase 1; assay: Inhibition of PARP1 in human MDA-MB-231 cells assessed as increase in gammaH2AX expression level incubated for 24 hrs by Western blot analysis; type: cell-based
[8] = target: T1, Poly [ADP-ribose] polymerase 1; assay: Inhibition of PARP1 in MMS treated human MDA-MB-436 cells harboring BRCA1 mutation assessed as increase in PARP1 trapping in chromatin-bound fraction incubated for 4 hrs by Western blot analysis; type: cell-based

| IC50 (MCF7) [µM] | IC50 (MDA-MB-231) [µM] | IC50 [1] [µM] | IC50 (MDA-MB-436 [2]) [µM] | inhibition [3] | inhibition [4] | inhibition [6] | inhibition [7] | inhibition [8] | SMILES | Activity (MDA-MB-436 [5]) |
| --- | --- | --- | --- | --- | --- | --- | --- | --- | --- | --- |
| 28.8 | > 40 | 1.82 | 4.95 | – | – | – | – | – | COc1c(Cl)c(O)c(Cl)c(C)c1-c1cc(O)c(Cl)c2cc3c(c(O)c12)C(=O)c1c(O)c(Cl)c(O)c(Cl)c1C3(C)C | – |
| > 40 | > 40 | 4.86 | 10.5 | – | – | – | – | – | COc1cc(O)c(Cl)c(C)c1-c1cc(O)cc2cc3c(c(O)c12)C(=O)c1c(O)cc(O)cc1C3(C)C | – |
| 16.5 | 18.8 | 8.84 | 9.2 | – | – | – | – | – | COc1cc(O)c(Cl)c(C)c1-c1cc(O)cc2cc3c(c(O)c12)C(=O)c1c(cc(O)c(Cl)c1O)C3(C)C | – |
| > 40 | > 40 | 5.88 | 9.27 | – | – | – | – | – | COc1cc(O)c(Cl)c(C)c1-c1cc(O)c(Cl)c2cc3c(c(O)c12)C(=O)c1c(O)c(Cl)c(O)c(Cl)c1C3(C)C | – |
| > 40 | > 40 | 0.95 | 3.82 | Dose-dependent effect | Dose-dependent effect | Dose-dependent effect | Dose-dependent effect | Dose-dependent effect | COc1cc(O)c(Cl)c(C)c1-c1cc(O)cc2cc3c(c(O)c12)C(=O)c1c(O)c(Cl)c(O)c(Cl)c1C3(C)C | inactive |
| > 40 | > 40 | 6.56 | 8.61 | – | – | – | – | – | COc1cc(O)c(Cl)c(C)c1-c1cc(O)c(Cl)c2cc3c(c(O)c12)C(=O)c1c(cc(O)c(Cl)c1O)C3(C)C | – |
| > 40 | > 40 | – | 0.22 | – | – | – | – | – | O=C(c1cc(Cc2n[nH]c(=O)c3ccccc23)ccc1F)N1CCN(C(=O)C2CC2)CC1 [OLAPARIB] | – |
| > 40 | > 40 | 15.4 | 20.2 | – | – | – | – | – | COc1cc(O)cc(C)c1-c1cc(O)cc2cc3c(c(O)c12)C(=O)c1c(cc(O)c(Cl)c1O)C3(C)C | – |
| > 40 | > 40 | 4.59 | 12.9 | – | – | – | – | – | COc1cc(O)c(Cl)c(C)c1-c1cc(O)c(Br)c2cc3c(c(O)c12)C(=O)c1c(O)cc(O)cc1C3(C)C | – |
